Measured values reported in US8778966B2, “Quinolinone derivatives as PARP and tank inhibitors” (Janssen Pharmaceutica, NV, priority 2007, dated 2014).

Target: T1, TANK-2 enzyme (Homo sapiens, UniProt Q9H2K2)
T1 construct: made in house
T1 sequence (Q9H2K2 1-1166): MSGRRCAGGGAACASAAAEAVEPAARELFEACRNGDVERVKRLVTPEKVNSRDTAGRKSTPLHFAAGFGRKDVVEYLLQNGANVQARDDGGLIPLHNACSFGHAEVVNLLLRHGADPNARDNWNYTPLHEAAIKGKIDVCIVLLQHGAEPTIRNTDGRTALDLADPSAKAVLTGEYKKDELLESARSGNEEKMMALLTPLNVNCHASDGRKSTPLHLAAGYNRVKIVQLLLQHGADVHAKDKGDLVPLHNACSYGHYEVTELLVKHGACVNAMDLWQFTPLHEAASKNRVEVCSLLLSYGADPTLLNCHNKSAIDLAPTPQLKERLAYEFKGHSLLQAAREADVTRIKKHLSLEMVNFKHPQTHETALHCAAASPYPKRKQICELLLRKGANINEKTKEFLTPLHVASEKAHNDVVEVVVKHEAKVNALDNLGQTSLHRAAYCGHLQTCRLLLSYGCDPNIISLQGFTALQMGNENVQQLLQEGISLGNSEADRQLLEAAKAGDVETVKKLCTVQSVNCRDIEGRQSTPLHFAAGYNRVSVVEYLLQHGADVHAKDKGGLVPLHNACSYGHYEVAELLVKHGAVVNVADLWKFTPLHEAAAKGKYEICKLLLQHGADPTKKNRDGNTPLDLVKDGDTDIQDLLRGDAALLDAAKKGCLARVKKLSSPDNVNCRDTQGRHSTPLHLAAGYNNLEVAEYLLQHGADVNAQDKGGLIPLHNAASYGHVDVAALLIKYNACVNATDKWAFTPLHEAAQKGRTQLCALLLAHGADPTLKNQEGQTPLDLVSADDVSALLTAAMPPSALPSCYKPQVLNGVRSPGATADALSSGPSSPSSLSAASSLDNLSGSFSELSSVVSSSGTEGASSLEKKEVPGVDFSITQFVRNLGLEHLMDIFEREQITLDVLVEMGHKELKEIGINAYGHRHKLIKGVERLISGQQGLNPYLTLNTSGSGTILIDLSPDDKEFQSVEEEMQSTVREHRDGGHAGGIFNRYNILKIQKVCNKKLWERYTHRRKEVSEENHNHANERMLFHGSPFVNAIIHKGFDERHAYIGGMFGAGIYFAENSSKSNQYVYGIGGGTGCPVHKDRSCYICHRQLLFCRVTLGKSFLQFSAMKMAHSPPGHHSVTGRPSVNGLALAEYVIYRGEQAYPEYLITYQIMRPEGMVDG
Assay: In vitro Scintillation Proximity Assay (SPA) for TANK-2 inhibitory activity
Type: biochemical
Details: read-out: in vitro SPA assay TANK-2 pIC50 (converted)
Method: Compounds of the present invention were tested in an in vitro assay based on SPA technology with Ni Flash plates (96 or 384 well). In principle, the assay relies upon SPA technology for the detection of auto-poly(ADP-ribosyl)ation of TANK-2 protein using [^3H]-nicotinamide adenine dinucleotide ([^3H]-NAD^+) as ADP-ribosyl donor.
A stock solution of 100 nM [3H]-NAD^+/NAD (0.1 mCi/ml, supplier: Perkin Elmer) and 0.25 μM NAD (Sigma) was made in assay buffer (60 mM Tris/HCl, pH 7.4; 0.9 mM DTT; 6 mM MgCl2). The TANK-2 enzyme was produced as described in EP1238063. 60 μl of assay buffer, together with 1 μl of compound in DMSO, 20 μl of [^3H]-NAD^+/NAD and 20 μl of TANK-2 enzyme (final concentration 8 μg/ml) was added per well into a 96-well Ni-coated flash plate (Perkin Elmer). After incubation of the mixture for 120 min. at room temperature, the reaction was terminated by adding 60 μl of stopsolution (42.6 mg NAD in 6 ml H2O). The plates were covered with a plate sealer and placed in a TopCountNXT™ (Packard) for scintillation counting. Values were expressed as counts per minute (cpm). For each experiment, controls (containing TANK-2 enzyme and DMSO without compound), a blank incubation (containing DMSO but no TANK-2 enzyme or compound) and samples (containing TANK-2 enzyme and compound dissolved in DMSO) were run in parallel. All compounds tested were dissolved and eventually further diluted in DMSO. In first instance, compounds were tested at a concentration of 10^−5M. […] In each test, the blank value was subtracted from both the control and the sample values. The control sample represented maximal TANK-2 enzyme activity. For each sample, the amount of cpm was expressed as a percentage of the mean cpm value of the controls. When appropriate, IC50-values (concentration of the drug, needed to reduce the TANK-2 enzyme activity to 50% of the control) were computed using linear interpolation between the experimental points just above and below the 50% level. Herein the effects of test compounds are expressed as pIC50 (the negative log value of the IC50-value). As reference compounds, 3-aminobenzamide and 4-amino-1,8-naphtalimide were included to validate the SPA assay. Herein the assay was described using 96-well plates. In the assay using 384-well plates the same final concentrations were used and volumes were adapted.

IC50 [nM] | Structure (SMILES)
79.4 | C#Cc1cccc(CC(C)(C#N)c2ccc3cc(CC)c(=O)[nH]c3c2)c1 (racemic) [Compound 168]
200 | CCc1cc2ccc(C(C)(C#N)CC3COc4ccccc4O3)cc2[nH]c1=O (single isomer, unassigned) [Compound 48]
200 | CCc1cc2ccc([C@@](C)(C#N)CCOc3ccccc3)cc2[nH]c1=O (single isomer, unassigned) [Compound 150]
631 | Cc1cc2ccc([C@@](C)(C#N)CCOc3ccccc3)cc2[nH]c1=O (single isomer, unassigned) [Compound 164]
50.1 | CCc1cc2ccc(C(C)(C#N)Cc3cccc(C(=O)O)c3)cc2[nH]c1=O (centres unmarked) [Compound 10]
79.4 | CCc1cc2ccc(C(C)(C#N)Cc3cccc(-c4nc(C)no4)c3)cc2[nH]c1=O (centres unmarked) [Compound 11]
100 | CCc1cc2ccc(C(C)(C#N)Cc3cccc(C(=O)OC)c3)cc2[nH]c1=O (centres unmarked) [Compound 12]
63.1 | CCc1cc2ccc(C(C)(C#N)Cc3cccc(C(=O)NC)c3)cc2[nH]c1=O (centres unmarked) [Compound 13]
79.4 | CCc1cc2ccc(C(C)(C#N)Cc3cccc(NS(C)(=O)=O)c3)cc2[nH]c1=O (centres unmarked) [Compound 14]
100 | CCc1cc2ccc(C(C)(C#N)Cc3cccc(N)c3)cc2[nH]c1=O (centres unmarked) [Compound 15]
79.4 | CCc1cc2ccc(C(C)(C#N)Cc3cccc(NC(=O)N4CCOCC4)c3)cc2[nH]c1=O (centres unmarked) [Compound 16]
63.1 | CCc1cc2ccc(C(C)(C#N)Cc3ccccc3Br)cc2[nH]c1=O (centres unmarked) [Compound 104]
20 | CCc1cc2ccc(C(C)(C#N)Cc3ccccc3C)cc2[nH]c1=O (centres unmarked) [Compound 105]
50.1 | CCc1cc2ccc(C(C)(C#N)Cc3ccccc3F)cc2[nH]c1=O (centres unmarked) [Compound 106]
31.6 | CCc1cc2ccc(C(C)(C#N)Cc3cccc(C)c3)cc2[nH]c1=O (centres unmarked) [Compound 107]
126 | CCc1cc2ccc(C(C)(C#N)Cc3ccc(C(F)(F)F)cc3)cc2[nH]c1=O (centres unmarked) [Compound 108]
79.4 | CCc1cc2ccc(C(C)(C#N)Cc3cccc(C(F)(F)F)c3)cc2[nH]c1=O (centres unmarked) [Compound 109]
126 | CCc1cc2ccc(C(C)(C#N)Cc3cccc(OC(F)(F)F)c3)cc2[nH]c1=O (centres unmarked) [Compound 110]
31.6 | CCc1cc2ccc(C(C)(C#N)Cc3ccc(C#N)cc3)cc2[nH]c1=O (centres unmarked) [Compound 111]

IC50 [nM] | Structure (SMILES)
25.1 | CCc1cc2ccc(C(C)(C#N)Cc3cccc(F)c3)cc2[nH]c1=O (centres unmarked) [Compound 112]
20 | CCc1cc2ccc(C(C)(C#N)Cc3cccc(OC)c3)cc2[nH]c1=O (centres unmarked) [Compound 113]
501 | CCc1cc2ccc(C(C)(C#N)Cc3ccc(OC(F)(F)F)cc3)cc2[nH]c1=O (centres unmarked) [Compound 114]
31.6 | CCc1cc2ccc(C(C)(C#N)Cc3ccc(F)cc3)cc2[nH]c1=O (centres unmarked) [Compound 115]
79.4 | CCc1cc2ccc(C(C)(C#N)Cc3c(F)c(F)c(F)c(F)c3F)cc2[nH]c1=O (centres unmarked) [Compound 116]
25.1 | CCc1cc2ccc(C(C)(C#N)Cc3ccc(C)cc3)cc2[nH]c1=O (centres unmarked) [Compound 117]
31.6 | CCc1cc2ccc(C(C)(C#N)Cc3ccc(Br)cc3)cc2[nH]c1=O (centres unmarked) [Compound 118]
31.6 | CCc1cc2ccc(C(C)(C#N)Cc3ccc(OC)cc3)cc2[nH]c1=O (centres unmarked) [Compound 119]
50.1 | CCc1cc2ccc(C(C)(C#N)Cc3cccc(F)c3F)cc2[nH]c1=O (centres unmarked) [Compound 120]
79.4 | CCc1cc2ccc(C(C)(C#N)Cc3cccc(Cl)c3Cl)cc2[nH]c1=O (centres unmarked) [Compound 121]
100 | CCc1cc2ccc(C(C)(C#N)Cc3ccc4ccccc4c3)cc2[nH]c1=O (centres unmarked) [Compound 122]
100 | CCc1cc2ccc(C(C)(C#N)Cc3ccc4c(c3)nnn4C)cc2[nH]c1=O (centres unmarked) [Compound 123]
100 | CCc1cc2ccc(C(C)(C#N)Cc3ccc4c(c3)OCCO4)cc2[nH]c1=O (centres unmarked) [Compound 124]
100 | CCc1cc2ccc(C(C)(C#N)Cc3cc(C)cc(C)c3)cc2[nH]c1=O (centres unmarked) [Compound 125]
100 | CCc1cc2ccc(C(C)(C#N)Cc3cc(F)cc(Cl)c3)cc2[nH]c1=O (centres unmarked) [Compound 126]
398 | CCc1cc2ccc(C(C)(C#N)Cc3cc(F)cc(C(F)(F)F)c3)cc2[nH]c1=O (centres unmarked) [Compound 127]
158 | CCc1cc2ccc(C(C)(C#N)Cc3cc(F)cc(F)c3)cc2[nH]c1=O (centres unmarked) [Compound 128]
126 | CCc1cc2ccc(C(C)(C#N)Cc3cccc(S(C)(=O)=O)c3)cc2[nH]c1=O (centres unmarked) [Compound 129]
79.4 | CCc1cc2ccc(C(C)(C#N)Cc3cccc(Cl)c3F)cc2[nH]c1=O (centres unmarked) [Compound 130]

IC50 [nM] | Structure (SMILES)
1000 | CCc1cc2ccc(C(C)(C#N)Cc3cc(C(F)(F)F)cc(C(F)(F)F)c3)cc2[nH]c1=O (centres unmarked) [Compound 131]
63.1 | CCc1cc2ccc(C(C)(C#N)Cc3cccc(C)c3F)cc2[nH]c1=O (centres unmarked) [Compound 132]
200 | CCc1cc2ccc(C(C)(C#N)Cc3cc(Br)cc(Br)c3)cc2[nH]c1=O (centres unmarked) [Compound 133]
126 | CCc1cc2ccc(C(C)(C#N)Cc3cccc(C(F)(F)F)c3F)cc2[nH]c1=O (centres unmarked) [Compound 134]
50.1 | CCc1cc2ccc(C(C)(C#N)Cc3c(Cl)cccc3Cl)cc2[nH]c1=O (centres unmarked) [Compound 135]
50.1 | CCc1cc2ccc(C(C)(C#N)Cc3c(Cl)cccc3Br)cc2[nH]c1=O (centres unmarked) [Compound 136]
63.1 | CCc1cc2ccc(C(C)(C#N)Cc3ccc(F)cc3F)cc2[nH]c1=O (centres unmarked) [Compound 137]
63.1 | CCc1cc2ccc(C(C)(C#N)Cc3c(F)cccc3F)cc2[nH]c1=O (centres unmarked) [Compound 138]
79.4 | CCc1cc2ccc(C(C)(C#N)Cc3ccc(F)cc3Br)cc2[nH]c1=O (centres unmarked) [Compound 139]
126 | CCc1cc2ccc(C(C)(C#N)Cc3cccc(Cl)c3)cc2[nH]c1=O (centres unmarked) [Compound 140]
126 | CCc1cc2ccc(C(C)(C#N)Cc3cc(Cl)cc(Cl)c3)cc2[nH]c1=O (centres unmarked) [Compound 141]
158 | CCOc1ccccc1OCCC(C)(C#N)c1ccc2cc(CC)c(=O)[nH]c2c1 (centres unmarked) [Compound 142]
158 | CCc1cc2ccc(C(C)(C#N)CCOc3cccc(C)c3)cc2[nH]c1=O (centres unmarked) [Compound 143]
100 | CCc1cc2ccc(C(C)(C#N)CCOc3ccc(F)cc3)cc2[nH]c1=O (centres unmarked) [Compound 144]
50.1 | CCc1cc2ccc(C(C)(C#N)CCOc3ccccc3)cc2[nH]c1=O (centres unmarked) [Compound 145]
158 | CCc1cc2ccc(C(C)(C#N)CCOc3ccc(Cl)cc3)cc2[nH]c1=O (centres unmarked) [Compound 146]
79.4 | CCc1cc2ccc(C(C)(C#N)CCOc3ccc(OC)cc3)cc2[nH]c1=O (centres unmarked) [Compound 147]
100 | CCc1cc2ccc(C(C)(C#N)CCOc3ccccc3C)cc2[nH]c1=O (centres unmarked) [Compound 148]
